# ChEMBL document CHEMBL1132852, “Synthesis and structure-activity relationships of 4-oxo-1-phenyl-3,4,6,7-tetrahydro-[1,4]diazepino[6,7,1-hi]indoles: novel PDE4 inhibitors” (Bioorg Med Chem Lett, 2000)
# Activity calls are given as the source filed them. The calls are words filed in the database; no cut-off is given here.
# Columns and labels:
# [1] = target: Phosphodiesterase, PDE1/PDE5 (Homo sapiens, UniProt O76074+P54750+Q01064+Q14123); assay: Inhibitory activity against phosphodiesterase 1/5 (PDE1/5) extracted from guinea pig trachea smooth muscle cells by using radioligands [3H]-cAMP or [3H]cGMP; format: tissue-based, Cavia porcellus; conditions: target entry is the homologue from another species
# Phosphodiesterase 3 = Phosphodiesterase 3 (Homo sapiens, UniProt Q14432+Q13370); assay: Inhibition of Phosphodiesterase 3 extracted from dog aorta smooth muscle cells by using radioligands [3H]cAMP or [3H]-cGMP.; design: species or system Canis lupus familiaris; conditions: target entry is the homologue from another species
# Phosphodiesterase 4 [2] = target: Phosphodiesterase 4 (Homo sapiens, UniProt P27815+Q08499+Q07343+Q08493); assay: Inhibition of phosphodiesterase 4 extracted from human U937 cells by using radioligands [3H]-cAMP or [3H]cGMP.; format: cell-free; conditions: u-937
# Rattus norvegicus = assay: Inhibition of antigen-induced lung eosinophilia in ovalbumin sensitized brown-norway rats after oral administration; format: functional
# Canis familiaris [3] = assay: Emetic effect in dogs administered at 3 mg/kg intravenously (no effect); format: functional, organism-based; design: dose 3 mg/kg; conditions: Canis lupus familiaris
# Phosphodiesterase 4 [4] = target: Phosphodiesterase 4 (Rattus norvegicus, UniProt P14270+P14646+P14644+P54748); assay: Displacement of [3H]rolipram from rat brain membrane suspensions; format: functional, tissue-based
# Canis familiaris [5] = assay: Emetic effect in dogs administered at 3 mg/kg intravenously (No effect); format: functional, organism-based; design: dose 3 mg/kg; conditions: Canis lupus familiaris
# Canis familiaris [6] = assay: Emetic effect in dogs administered at 0.03 mg/kg intravenously (No effect); format: functional, organism-based; design: dose 0.03 mg/kg; conditions: Canis lupus familiaris
SMILES,IC50 [1],IC50 (Phosphodiesterase 3),IC50 (Phosphodiesterase 4 [2]),ED50 (Rattus norvegicus),Activity (Canis familiaris [3]),IC50 (Phosphodiesterase 4 [4]),Activity (Canis familiaris [5]),Activity (Canis familiaris [6])
Cc1cc2c3c(c1)C(c1ccccc1)=N[C@@H](NC(=O)c1ccc(Cl)cc1)C(=O)N3CC2,> 100 µM,27 µM,1.25 µM,,,,,
O=C(NC1N=C(c2ccccc2)c2cccc3c2N(CCC3)C1=O)c1cc2ccccc2[nH]1 (stereo not given),> 100 µM,> 100 µM,> 100 µM,,,,,
Cc1cc2c3c(c1)C(c1ccccc1)=N[C@@H](NC(=O)c1ccc(Cl)cc1Cl)C(=O)N3CC2,> 100 µM,17.5 µM,0.76 µM,,,,,
COc1cc2c3c(c1)C(c1ccccc1)=N[C@@H](NC(=O)c1cc4ccccc4[nH]1)C(=O)N3CC2,100 µM,> 100 µM,0.65 µM,,,,,
O=C(NC1N=C(c2ccccc2F)c2cc(Cl)cc3c2N(CC3)C1=O)c1cc2ccccc2[nH]1 (stereo not given),,> 100 µM,> 100 µM,,,,,
O=C(N[C@@H]1N=C(c2ccccc2)c2cccc3c2N(CC3)C1=O)c1cc2ccccc2cn1,> 100 µM,> 100 µM,4.2 µM,,,,,
COc1cc2c3c(c1)C(c1ccccc1)=N[C@@H](NC(=O)c1ccc(Cl)cc1)C(=O)N3CC2,40 µM,62 µM,1.8 µM,,,,,
Cc1cc2c3c(c1)C(c1ccccc1)=N[C@@H](NC(=O)c1cc(Cl)cc(Cl)c1)C(=O)N3CC2,> 100 µM,43.7 µM,1.15 µM,,,,,
Cc1cc2c3c(c1)C(c1ccccc1)=N[C@@H](NC(=O)c1ccncc1)C(=O)N3CC2,> 100 µM,> 100 µM,1.14 µM,6.9 mg/kg,inactive,,,
Cc1cc2c3c(c1)C(c1ccccc1)=N[C@@H](NC(=O)c1cc4ccccc4cn1)C(=O)N3CC2,> 100 µM,> 100 µM,2.6 µM,10.7 mg/kg,,> 3 µM,inactive,
Cc1cc2c3c(c1)C(c1ccccc1)=N[C@@H](NC(=O)c1cc(Cl)c(N)c(Cl)c1)C(=O)N3CC2,> 100 µM,17.5 µM,0.33 µM,,,,,
Nc1c(Cl)cc(C(=O)N[C@@H]2N=C(c3ccccc3)c3cccc4c3N(CC4)C2=O)cc1Cl,> 100 µM,> 100 µM,0.63 µM,,,,,
O=C(N[C@@H]1N=C(c2ccccc2)c2cc(O)cc3c2N(CC3)C1=O)c1cc2ccccc2cn1,> 100 µM,> 3.5 µM,0.41 µM,,,,,
O=C(NC1N=C(c2ccccc2)c2ccccc2NC1=O)c1cc2ccccc2[nH]1 (stereo not given),,> 100 µM,> 100 µM,,,,,
O=C(N[C@@H]1N=C(c2ccccc2F)c2cccc3c2N(CC3)C1=O)c1cc2ccccc2[nH]1,,> 100 µM,> 100 µM,,,,,
COc1ccccc1C(=O)N[C@@H]1N=C(c2ccccc2)c2cc(C)cc3c2N(CC3)C1=O,71.7 µM,> 100 µM,0.76 µM,,,,,
COc1ccc(C(=O)N[C@@H]2N=C(c3ccccc3)c3cc(C)cc4c3N(CC4)C2=O)c(OC)c1,,7.85 µM,0.96 µM,,,,,
O=C(N[C@@H]1N=C(c2ccccc2)c2cccc3c2N(CC3)C1=O)c1cc2ccccc2[nH]1,> 100 µM,> 100 µM,4 µM,,,,,
COc1ccc(C2CNC(=O)C2)cc1OC1CCCC1 (stereo not given),,,,,,,,inactive
COc1cc2c3c(c1)C(c1ccccc1)=N[C@@H](NC(=O)c1cc4ccccc4cn1)C(=O)N3CC2,65.3 µM,82 µM,1.62 µM,,,,,
O=C(N[C@H]1N=C(c2ccccc2)c2cccc3c2N(CC3)C1=O)c1cc2ccccc2[nH]1,100 µM,> 100 µM,100 µM,,,,,
Cc1cc2c3c(c1)C(c1ccccc1)=N[C@@H](NC(=O)c1nnc4cc(C)nn4c1C)C(=O)N3CC2,> 100 µM,> 100 µM,0.71 µM,,,,,
